Data taken from patent US20240261443A1, “COMPOUNDS AND COMPOSITIONS USEFUL AS RADIOTRACERS FOR IMAGING OF REACTIVE OXIDATIVE SPECIES” (Wake Forest University Health Sciences, priority 2019, published 2024).
pIC50: −log10 of the molar value.

Experiments:
SCC-61 cells = conditions: cited from earlier work
[1] = test system: SCC-61 and rSCC-61 cell lines; assay: MitoSOX fluorescence ROS assay, with or without SOD blocker; format: cell-based, human
Procedure: As a first-line tool to screen KS1 and KS2: SCC-61 has higher intracellular ROS than rSCC-61. MitoSOX is a mitochondrion-targeted dihydroethidium based derivative that primarily detects ROS (superoxide anion) produced within mitochondria. Mitosox assays without any ligands were used as controls. The two cell lines were treated with KS1, KS2 and ascorbate (10.0 μM) and incubated for an hour. MitoSOX (1.0 μM) in phenol red-free DMEM/F12 media was added and incubated for an additional 10 min. The cells were then washed with PBS and imaged in the same media.
In addition to testing KS1 with the MitoSOX assay, we compared our results with no ligand controls and ascorbate as a reference standard. The two cell lines were treated with KS1 and ascorbate (10.0 μM) and incubated for an hour. MitoSOX (1.0 μM) in phenol red-free DMEM/F12 media was added and incubated for an additional 10 min. The cells were then washed with PBS and imaged in the same media. Ligand specificity is commonly determined by pretreating the cells with high concentrations of blockers. Superoxide dismutase (SOD), an enzyme that selectively suppresses accumulation of ROS-superoxide peroxide anions, was added as blocker (1.0 mM) 60 min before the treatment of KS1 (Bielski et al., Chemistry of ascorbic acid radicals. in Ascorbic Acid: Chemistry, Metabolism, and Uses. Chapter. 1982; 4:81-100). Fluorescence was subsequently measured and its intensity was quantified in f.u (fluorescence units).
Ligand specificity is commonly determined by pretreating the cells with high concentrations of blockers. We used superoxide dismutase (SOD), an enzyme that selectively suppresses accumulation of ROS-superoxide peroxide anions (Bielski et al., Chemistry of ascorbic acid radicals. in Ascorbic Acid: Chemistry, Metabolism, and Uses. Chapter 1982, 4, 81-100). The same MitoSOX assay with KS1 and KS2 (10 μM) was performed by pretreating the SCC-61 cells with SOD (1.0 mM) for 60 min.

SCC-61 cell line (HNSCC) = assay: MTT cytotoxicity IC50 assay, SCC-61; format: cell-based, human; conditions: SCC-61, MTT
Procedure: (§1) The cells were seeded at density 5×10^3 cells/well. After 24 h pre-incubation period, cells were treated with 0.01 mM to 2.0 mM of freshly prepared KS1 and KS2 along with ascorbate (n=3) for 48 h. 0.2% of DMSO served as vehicle control. After 48 h, the solutions were removed from all plates and MTT assays performed following the published protocols. IC50 values are presented as mean±SD from at least three independent experiments.
(§2) There is growing evidence for a therapeutic role of ascorbate against several cancers (Creagan et al., Failure of High-Dose Vitamin C (Ascorbic Acid) Therapy to Benefit Patients with Advanced Cancer. New England Journal of Medicine 1979, 301 (13), 687-690; Chen et al., Pharmacologic ascorbic acid concentrations selectively kill cancer cells: action as a pro-drug to deliver hydrogen peroxide to tissues. Proceedings of the National Academy of Sciences of the United States of America 2005, 102 (38), 13604-13609; Prasad et al., High Doses of Multiple Antioxidant Vitamins: Essential Ingredients in Improving the Efficacy of Standard Cancer Therapy. Journal of the American College of Nutrition 1999, 18 (1), 13-25). Pharmacologic doses of ascorbate (oral and/or intravenous) could increase the effectiveness of cancer chemotherapy in many solid cancer therapies (López-Lizaro, Dual role of hydrogen peroxide in cancer: Possible relevance to cancer chemoprevention and therapy. Cancer Letters 2007, 252 (1), 1-8; Li et al., New Developments and Novel Therapeutic Perspectives for Vitamin C. The Journal of Nutrition 2007, 137 (10), 2171-2184; Klimant et al., Intravenous vitamin C in the supportive care of cancer patients: a review and rational approach. Current Oncology 2018, 25 (2), 139-148. The primary objective of this experiment was to determine the cytotoxic effects of KS1 at pharmacological concentrations. Cancer cell lines were selected based on their high ROS implications. […] These cell lines have been studied extensively with ascorbic acid treatments (Schoenfeld et al., O(2)(·−) and H(2)O(2)-Mediated Disruption of Fe Metabolism Causes the Differential Susceptibility of NSCLC and GBM Cancer Cells to Pharmacological Ascorbate. Cancer Cell 2017, 31 (4), 487-500.e8; Chen et al., Modulators of Redox Metabolism in Head and Neck Cancer. Antioxidants & Redox Signaling 2017, 29 (16), 1660-1690; Khandrika et al., Oxidative stress in prostate cancer. Cancer Lett 2009, 282 (2), 125-136.

PC3 cell line = assay: MTT cytotoxicity IC50 assay, PC3; format: cell-based, human
Procedure: as §1, §2

[2] = test system: SCC-61 and PC3 cell lines; assay: DCFDA intracellular ROS detection assay; format: cell-based, human; conditions: 2 mM, 7 h, compared to 100 μM
Source text: For this, we used dichlorofluorescin diacetate (DCFDA) intracellular ROS detection assay kit and followed manufacture recommended protocol (ZHELEV et al., Docosahexaenoic Acid Sensitizes Leukemia Lymphocytes to Barasertib and Everolimus by ROS-dependent Mechanism Without Affecting the Level of ROS and Viability of Normal Lymphocytes. Anticancer Research 2016, 36 (4), 1673-1682). We studied two patient-derived tumor cell lines: SCC-61, […], and PC3, prostate cancer cell line. The maximum allowed mass for a typical clinical PET radiotracer is <100 μM (Schwarz et al., Radiochemistry and radiopharmacology. LIC-Nuclear Medicine and PET/CT: Technology and Techniques 2016, 11, 77), so we chose 10-100 μM as our concentration range for tracer-level assays. The lowest reported pharmacologic dose for ascorbate is 2.0 mM (Levine et al., Vitamin C: a concentration-function approach yields pharmacology and therapeutic discoveries. Adv Nutr 2011, 2 (2), 78-88), so we chose this dose for our pharmacological assays. We chose the ligand incubation times based on the maximum tracer uptake time (˜2 h) for a typical [^18F]-based PET radiotracer injection (Schlyer, PET tracers and radiochemistry. ANNALS-ACADEMY OF MEDICINE SINGAPORE 2004, 33 (2), 146-154).
Pharmacologic doses of ascorbate generates ROS, including H2O2 and trace amounts of labile iron extracellularly and/or intracellularly (Nauman et al., Systematic Review of Intravenous Ascorbate in Cancer Clinical Trials. Antioxidants (Basel) 2018, 7 (7), 89). We performed the same DCFDA assay with KS1 and ascorbate at pharmacological doses of 2 mM for 7 h in both SCC-61 and PC3 cell lines. ROS production was analyzed and reported (FIG. 11) using the similar measurements as above. Ligand specificity is commonly determined by pretreating the cells with high concentrations of blockers. We used superoxide dismutase (SOD), an enzyme that selectively suppresses accumulation of superoxide peroxide anions (Bielski et al., Chemistry of ascorbic acid radicals. in Ascorbic Acid: Chemistry, Metabolism, and Uses. Chapter 1982, 4, 81-100).

Ex vivo serum stability = format: in vitro ADME; conditions: human serum, 37° C., after 120 min of tracer synthesis
Procedure: The ex vivo serum stability of [^18F]KS1 and [^18F]KS2 were analyzed in human serum samples, following previously published methods (Sai et al., Peptide-based PET imaging of the tumor restricted IL13RA2 biomarker. Oncotarget 2017, 5; Sattiraju et al., IL13RA2 targeted alpha particle therapy against glioblastoma. Journal of Nuclear Medicine 2016, 57 (supplement 2), 634; Wang et al., Evaluation of F-18-labeled amino acid derivatives and [18F]FDG as PET probes in a brain tumor-bearing animal model. Nuclear Medicine and Biology 2005, 32 (4), 367-375). Briefly, radiotracer was added to the human serum sample, and incubated at 37° C. Radioactive serum mixture was injected into the QC-HPLC system at 5 min, 30 min, 1 h, 1.5 h, 2 h, 2.5 h, and 3 h post radiotracer synthesis. Radiolysis through defluorination and/or oxidation of the radiotracers (if any) can be seen as new radiochemical peaks at different retention times (Rt) than the original product peak (Jin et al., A promising F-18 labeled PET radiotracer (-)-[18F]VAT for assessing the VAChT in vivo. Journal of Nuclear Medicine 2015, 56 (supplement 3); Koglin et al., [F-18]BAY 85-8050: A novel tumor specific probe for PET imaging-Preclinical results. Journal of Nuclear Medicine 2010, 51 (supplement 2), 1535; […] et al., Imaging COX-2 expression in cancer using PET/SPECT radioligands: current status and future directions. […]

C#Cc1cccc(Nc2ncnc3cc(OCCOC)c(OCCOC)cc23)c1 [erlotinib]
pIC50 (SCC-61 cells): < 4.30

O=C1O[C@H]([C@@H](O)CO)C(O)=C1O [ascorbate, ascorbic acid, reference compound]
MitoSOX fluorescence in SCC-61 compared to rSCC-61 cells ([1]; 10.0 μM, 1 h incubation): higher fluorescence | pIC50 (SCC-61 cell line (HNSCC); Homo sapiens, Example 7, 48 h): 3.09 | pIC50 (SCC-61 cell line (HNSCC); Homo sapiens, Example 13): 2.86 | pIC50 (PC3 cell line; Homo sapiens, PC-3, Example 7, 48 h): 2.95 | pIC50 (PC3 cell line; Homo sapiens, PC-3, Example 13): 2.85 | fluorescence intensity (ROS generation) at pharmacological dose [2]: also increased, but not as with KS1

O=C1O/C(=C/Cc2ccc(OCCF)cc2)C(O)=C1O [KS2]
higher selectivity between the two cell lines compared to ascorbate selectivity ([1]; Example 4, SCC-61 vs rSCC-61, MitoSOX fluorescence): ~10 fold | decrease of fluorescent uptake by SOD pretreatment ([1]; SCC-61 cells, SOD (1.0 mM) for 60 min): ~30% | pIC50 (SCC-61 cell line (HNSCC); Example 7, 48 h): 3.78 | pIC50 (PC3 cell line; Example 7, 48 h): 3.60

O=C1O/C(=C/Cc2ccc(OCC[18F])cc2)C(O)=C1O [[^18F]KS2]
intact in serum (Ex vivo serum stability): ~80%
